Assays:
[1] = Selectivity index, ratio of IC50 for cytotoxicity against human HBE cells to IC50 for cytotoxicity against human HCC827 cells harboring EGFR del E746-A750 mutant assessed as reduction in cell viability measured after 48 hrs by CCK8 assay
[2] = Selectivity index, ratio of IC50 for cytotoxicity against human A549 cells harboring wild type EGFR to IC50 for cytotoxicity against human HCC827 cells harboring EGFR del E746-A750 mutant assessed as reduction in cell viability measured after 48 hrs by CCK8 assay
[3] = Potency index, ratio of avitinib IC50 to test compound IC50 for cytotoxicity against human BEAS-2B cells assessed as reduction in cell viability measured after 48 hrs by CCK8 assay; assay type: cell-based; conditions: read-out: Ratio IC50
[4] = Potency index, ratio of avitinib IC50 to test compound IC50 for cytotoxicity against human HBE cells assessed as reduction in cell viability measured after 48 hrs by CCK8 assay; assay type: cell-based; conditions: read-out: Ratio IC50

**Q.** Which “Selectivity Index” value [1] does the source give for `C=CC(=O)Nc1cccc(Oc2nc(Nc3ccc(N4CCN(C)CC4)c(N)c3)nc3[nH]ccc23)c1` here?
**A.** Its value is 493.

**Q.** And the “Selectivity Index” value [2]?
**A.** The value was 132.

**Q.** What about the selectivity ratio at 48 h [3] of the same compound?
**A.** Its selectivity ratio at 48 h is 2.

**Q.** What about the selectivity ratio at 48 h [4] of the same compound?
**A.** The selectivity ratio at 48 h was 2.
